# Assay results: US10167293B2, “[8-(phenylsulfonyl)-3,8-diazabicyclo[3.2.1]oct-3-yl](1H-1,2,3-triazol-4-yl)methanones” (BAYER PHARMA AKTIENGESELLSCHAFT, priority 2016, dated 2019)
# Molecular target: recombinant human AKR1C3 (Homo sapiens (Human), UniProt P42330)
# Test: AKR1C3-inhibitory activity assay (Coumberone to Coumberol fluorescence)
# Type: biochemical
# Conditions: recombinant human AKR1C3, 15 min pre-incubation, 10 μM NADPH, 0.3 μM Coumberone
# Procedure: The AKR1C3-inhibitory activity of the substances of the present invention was measured in the AKR1C3 assay described in the paragraphs below.
# Essentially, the enzyme activity is measured by quantification of the generation of Coumberol from Coumberone (Halim et al. J. AM. CHEM. SOC. 2008, 130:14123-14128 and Yee et al. Proc. Natl. Acad. Sci. USA 2006, 103:13304-13309). In this test, the increase of the highly fluorescent Coumberol by NADPH—(nicotinamide adenine dinucleotide phosphate)-dependent reduction of the non-fluorescent Coumberone by AKR1C3 was determined.
# The enzyme used was recombinant human AKR1C3 (Aldo-keto reductase family 1 member C3; GenBank Accession No. NM_003739). This was expressed in E. coli as GST (glutathione S transferase) fusion protein and purified by glutathione Sepharose affinity chromatography. The GST was removed by digestion with thrombin and subsequent size exclusion chromatography (Dufort, I., Rheault, P., Huang, X F., Soucy, P., and Luu-The, V., Endocrinology 140, 568-574 (1999)).
# For the assay, 50 nl of a 100-fold concentrated solution of the test substance in DMSO were pipetted into a black low-volume 384-well microtiter plate (Greiner Bio-One, Frickenhausen, Germany), 2.5 μl of a solution of AKR1C3 in assay buffer [50 mM potassium phosphate buffer pH 7, 1 mM DTT, 0.0022% (w/v) Pluronic F-127, 0.01% BSA (w/v) and protease inhibitor cocktail (Complete, EDTA-free Protease Inhibitor Cocktail from Roche)] were added and the mixture was incubated for 15 min to allow pre-binding of the substances to the enzyme prior to the enzyme reaction. The enzyme reaction was then started by addition of 2.5 μl of a solution of NADPH (20 μM→final concentration in 5 μl of assay volume is 10 μM) and Coumberone (0.6 μM→final concentration in 5 μl of assay volume is 0.3 μM) in assay buffer, and the resulting mixture was incubated at 22° C. for the reaction time of typically 90 min. The concentration of the AKR1C3 and the reaction time was adapted to the respective activity of the enzyme preparation and adjusted such that the assay was carried out in the linear range. Typical AKR1C3 concentrations were in the region of 1 nM. The reaction was stopped by addition of 2.5 μl of a stop solution consisting of 3 μM EM-1404 as inhibitor (U.S. Pat. No. 6,541,463) in 50 mM HEPES pH7.5 (3 μM EM-1404→final concentration in 7.5 μl of assay volume is 1 μM). The fluorescence of the Coumberole was then measured at 520 nm (excitation at 380 nm) using a suitable measuring instrument (Pherastar from BMG Labtechnologies). The intensity of the fluorescence was used as a measure of the amount of Coumberole formed and thus of the enzyme activity of AKR1C3. The data were normalized (enzyme reaction without inhibitor=0% inhibition; all other assay components, but no enzyme=100% inhibition).
# recombinant human AKR1C3, sequence (P42330 whole entry): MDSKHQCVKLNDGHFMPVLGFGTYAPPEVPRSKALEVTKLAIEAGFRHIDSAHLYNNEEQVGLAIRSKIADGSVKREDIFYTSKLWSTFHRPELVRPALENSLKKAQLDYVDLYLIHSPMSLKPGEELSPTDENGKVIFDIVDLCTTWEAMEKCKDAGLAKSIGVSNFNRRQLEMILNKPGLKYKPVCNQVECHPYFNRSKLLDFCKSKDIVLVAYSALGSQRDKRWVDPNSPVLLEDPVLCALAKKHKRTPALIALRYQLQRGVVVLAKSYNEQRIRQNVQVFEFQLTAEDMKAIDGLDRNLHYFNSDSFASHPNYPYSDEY
row,Structure (SMILES),IC50 [nM]
1,"Cc1ccc(Cl)cc1S(=O)(=O)N1C2CCC1CN(C(=O)c1cnn[nH]1)C2 [Example 63, {8-[(5-chloro-2-methylphenyl)sulfonyl]-3,8-diazabicyclo[3.2.1]oct-3-yl}(1H-1,2,3-triazol-5-yl)methanone]",1.7
2,"O=C(c1cnn[nH]1)N1CC2CCC(C1)N2S(=O)(=O)c1cccc(Br)c1 [Example 31, {8-[(3-bromophenyl)sulfonyl]-3,8-diazabicyclo[3.2.1]oct-3-yl}(1H-1,2,3-triazol-5-yl)methanone]",0.5
3,"COc1ccc(Cl)cc1S(=O)(=O)N1C2CCC1CN(C(=O)c1cnn[nH]1)C2 [Example 57, {8-[(5-chloro-2-methoxyphenyl)sulfonyl]-3,8-diazabicyclo[3.2.1]oct-3-yl}(1H-1,2,3-triazol-5-yl)methanone]",9.7
4,"O=C(c1cnn[nH]1)N1CC2CCC(C1)N2S(=O)(=O)c1cc(Cl)ccc1Cl [Example 30, {8-[(2,5-dichlorophenyl)sulfonyl]-3,8-diazabicyclo[3.2.1]oct-3-yl}(1H-1,2,3-triazol-5-yl)methanone]",0.6
5,"CCc1ccc(S(=O)(=O)N2C3CCC2CN(C(=O)c2cnn[nH]2)C3)cc1 [Example 49, {8-[(4-ethylphenyl)sulfonyl]-3,8-diazabicyclo[3.2.1]oct-3-yl}(1H-1,2,3-triazol-5-yl)methanone]",1.2
6,"N#Cc1ccccc1S(=O)(=O)N1C2CCC1CN(C(=O)c1cnn[nH]1)C2 [Example 35, 2-{[3-(1H-1,2,3-triazol-5-ylcarbonyl)-3,8-diazabicyclo[3.2.1]oct-8-yl]sulfonyl}benzonitrile]",6
7,"COc1cc(C)ccc1S(=O)(=O)N1C2CCC1CN(C(=O)c1cnn[nH]1)C2 [Example 67, {8-[(2-methoxy-4-methylphenyl)sulfonyl]-3,8-diazabicyclo[3.2.1]oct-3-yl}(1H-1,2,3-triazol-5-yl)methanone]",1
8,"O=C(c1cnn[nH]1)N1CC2CCC(C1)N2S(=O)(=O)c1cc(F)c(F)cc1F [Example 62, 1H-1,2,3-triazol-5-yl{8-[(2,4,5-trifluorophenyl)sulfonyl]-3,8-diazabicyclo[3.2.1]oct-3-yl}methanone]",2.8
9,"N#Cc1cccc(S(=O)(=O)N2C3CCC2CN(C(=O)c2cnn[nH]2)C3)c1 [Example 17, 3-{[3-(1H-1,2,3-triazol-5-ylcarbonyl)-3,8-diazabicyclo[3.2.1]oct-8-yl]sulfonyl}benzonitrile]",2.9
10,"O=C(c1cnn[nH]1)N1CC2CCC(C1)N2S(=O)(=O)c1ccc([N+](=O)[O-])cc1 [Example 43, {8-[(4-nitrophenyl)sulfonyl]-3,8-diazabicyclo[3.2.1]oct-3-yl}(1H-1,2,3-triazol-5-yl)methanone]",9.1
11,"O=C(c1cnn[nH]1)N1CC2CCC(C1)N2S(=O)(=O)c1ccccc1OC(F)(F)F [Example 42, 1H-1,2,3-triazol-5-yl[8-{[2-(trifluoromethoxy)phenyl]sulfonyl}-3,8-diazabicyclo[3.2.1]oct-3-yl]methanone]",1.1
12,O=C(c1c[nH]nn1)N1CC2CCC(C1)N2S(=O)(=O)c1cc(C(F)(F)F)cc(C(F)(F)F)c1 [Example 10],7.3
13,"Cc1cccc(S(=O)(=O)N2C3CCC2CN(C(=O)c2cnn[nH]2)C3)c1 [Example 13, {8-[(3-methylphenyl)sulfonyl]-3,8-diazabicyclo[3.2.1]oct-3-yl}(1H-1,2,3-triazol-5-yl)methanone]",1.4
14,"O=C(c1cnn[nH]1)N1CC2CCC(C1)N2S(=O)(=O)c1cccc2nsnc12 [Example 54, [8-(2,1,3-benzothiadiazol-4-ylsulfonyl)-3,8-diazabicyclo[3.2.1]oct-3-yl](1H-1,2,3-triazol-5-yl)methanone]",1.2
15,"N#Cc1c(Cl)cccc1S(=O)(=O)N1C2CCC1CN(C(=O)c1cnn[nH]1)C2 [Example 68, 2-chloro-6-{[3-(1H-1,2,3-triazol-5-ylcarbonyl)-3,8-diazabicyclo[3.2.1]oct-8-yl]sulfonyl}benzonitrile]",1.3
